The subject of series [1] is human rhinovirus 14, strain 1059. The series is described as follows: Inhibition of virus in whole-cell assay (inhibition of cytopathic effect). The format is cell-based. As for the experimental part: H1-HeLa cells, obtained from ATCC (F-13824, 1958-CRL) were cultured in MEM (Minimum Essential Medium) supplemented with 10% heat-inactivated fetal calf serum (FCS) by incubation at 37° C, 5% CO2 (Biological Industry, Kibbuts Beit HaEmek, Israel).
96 well plates were seeded to 90% confluency. After 12-24 hrs of incubation, the cell's monolayer was washed with phosphate-buffered saline (PBS), and the cells were subsequently infected with ten-fold dilutions in PBS (log10) of human rhinovirus 14, strain 1059, obtained from ATCC.
For each concentration of compound, three rows of wells containing various dilutions of virus were used. After 1 h of incubation at room temperature, medium containing 3% FCS and various concentrations of compound to be tested was placed in the well. After 2 days incubation at 34° C, 5% CO2, the cells were fixed by 10% formaldehyde and stained with methylene blue to determine cell viability. The cytopathic effect of non-viable cells was arbitrarily set to 100% for the untreated viral infection, so that the effect of each compound on cell viability was determined according to this baseline. Each experiment was performed 5 times for each compound, and the inhibition of cytopathic effect (ICE50) for inhibition of viral activity was calculated. […] ICE50 refers to the concentration in which 50% of the cells remain viable after viral infection.
For orientation: Cytopathic effects are the visible damage that an infection or toxin causes in cultured cells.

The test system of a further series is H1-HeLa cells. The series is described as follows: 50% toxic dose (TD50). The format is cell-based.
The target of series [2] is T1, Recombinant HRV-1A 3C protease (Human rhinovirus 1A, UniProt P23008).
T1 construct: HRV-1A 3C protease was produced in E. Coli [BL21(DE3)pLysS] containing the protease gene; made in house; host or cells: E. coli BL21(DE3)pLysS, T7 expression vector
The series is described as follows: HRV 3C Protease Inhibition Assay - HPLC Method. The format is biochemical. Conditions: Km value of 1.9 mM, overnight incubation.

The next series has as its system elastase. The series is described as follows: Elastase cleavage activity (specificity). In kind it is biochemical. Conditions: 50 mM DIF1. As to the method:
(§1) The specificity of DIF1 as an enzyme inhibitor was tested using cleavage assays for a number of other enzymes, including elastase, cathepsin B, chymotripsin, papain and ficin A. Elastase was particularly important because it is present in […], so that inhibition of its activity could potentially be highly toxic. […] The experimental method was as follows.
The cleavage activity of elastase was determined in 0.1 M Tris-HCl pH 7.0 buffer containing 20 μg/ml enzyme and its synthetic substrate. N-succinyl-Ala-Ala-Ala-p-nitroanilide.

The target in a further series is chymotripsin (Bos taurus, UniProt P00766). The series is described as follows: Chymotripsin assay (specificity). The format is biochemical. Conditions: all DIF1 concentrations tested. As for the experimental part:
as §1
(§2) The cleavage activity for cathepsin B was assayed according to the method of Bajowski an Frankfater (Anal. Biochem. 68:119 (1975)). Chymotripsin was assayed in 0.1M KPi buffer pH 7.0 containing 0.04 μg/ml enzyme and 200 μM N-benzyl-L-tryosine ethyl ester (from a 20 mM stock in dimethyl sulfoxide). The reaction was monitored by spectrophotometry at 256 nm.

Another series has as its system ficin A. The series is described as follows: Ficin assay (specificity). The format is biochemical. Conditions: all DIF1 concentrations tested. As to the method: as §1
(§3) Papain and Ficin were incubated for one hour in an activation solution containing 0.1 M KPi buffer pH 7.0. 0.5 mM cysteine, 20 mM EDTA and 65 μg enzyme. The assays were carried out by adding 20 μl aliquots from the activation mix to 0.1 M KPi buffer pH 7.0, containing 12.5 nM N-CBZ-p-Nitrophenyl ester. The reaction was monitored by spectrphotometry at 405 nm.

A further series deals with cathepsin B (Homo sapiens, UniProt P07858). The series is described as follows: Cathepsin B cleavage activity (specificity). In kind it is biochemical. Conditions: all DIF1 concentrations tested. As for the experimental part: as §1, §2
In the next series the target is T2, papain (Carica papaya, UniProt P00784).
T2 sequence (P00784 134-345): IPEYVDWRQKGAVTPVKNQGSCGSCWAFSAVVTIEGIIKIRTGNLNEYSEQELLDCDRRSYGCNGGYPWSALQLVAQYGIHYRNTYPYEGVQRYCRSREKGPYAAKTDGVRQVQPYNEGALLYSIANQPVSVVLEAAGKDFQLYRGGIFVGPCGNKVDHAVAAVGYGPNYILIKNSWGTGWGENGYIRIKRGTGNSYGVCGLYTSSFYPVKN
The series is described as follows: Papain assay (specificity). In kind it is biochemical. Conditions: all DIF1 concentrations tested. As to the method: as §1, §3

The next series addresses T3, HRV 3C protease (Human rhinovirus 1A, UniProt P23008).
T3 construct: 2.5 μg of HRV 3C protease
The series is described as follows: Inhibition of 3C protease cleavage activity, peptide cleavage assay with reverse phase HPLC. In kind it is biochemical. As to the method:
Next, the inhibition of 3C protease activity was measured by using a cleavage assay. […] Specific cleavage of this peptide [(N-Ac)Arg-Ala-Glu-Leu-Gln-Gly-Pro-[…]-Asp-Glu] (SEQ ID NO:2) by HRV 3C provided two pentapeptides. In a typical experiment 80 μg of peptide, dissolved in 100 mM TRIS (pH 8) and 100 mM NaCl, was incubated at 35° C. with 2.5 μg of HRV 3C protease with and without DIF1, to give a total volume of 30 μl. In both cases 3C was suspended in a buffered solution (40 mM Tris-HCL, pH 8.0, 100 mM, NaCl, 1 mM DTT, 1 mM EDTA), 2.5 mg of DIF1 (dissolved in 1 ml of ethanol) was used, corresponding to a concentration of 270 μM. Inhibitory effects due to the organic solvent were not observed; nevertheless, 10 μl of ethanol were added to the control. Aliquots were drawn at short intervals (within ca. 40 min.) and quenched with an equal volume of 1% TFA in Methanol (HPLC grade). […]
The degree of 3C protease inhibition by DIF1 was found by integration of peak areas under the 280 nm absorption curve. The degree of cleavage was calculated as the ratio of peak areas corresponding to peptide alone and peptide plus GPYDE (SEQ ID NO:3) product. Quantification was based on the initial, linear portion of the absorption curve, which represents less than 20% cleavage.

These results are taken from US6888033B1, “Anti-viral compounds” (Cytoclonal Pharmaceutics, Inc., priority 1996, dated 2005).

Like-named read-outs stand apart in the source and are kept apart here.

T1 sequence (P23008 1515-1697): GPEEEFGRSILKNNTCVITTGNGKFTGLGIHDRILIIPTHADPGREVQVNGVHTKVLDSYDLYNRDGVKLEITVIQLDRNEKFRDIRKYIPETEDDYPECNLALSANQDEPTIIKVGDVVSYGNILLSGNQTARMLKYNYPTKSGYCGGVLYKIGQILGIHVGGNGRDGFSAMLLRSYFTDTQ
T3 sequence (P23008 1515-1697): as above

On to `COCCC(O)CC(O)C(=O)c1ccccc1` (stereo not drawn) [Compound 108, 2,4-dihydroxy-6-methoxyhexanophenone], for which the melting point stood at 109 °C.

For the molecule `CCCCCC(=O)c1c(O)c(Cl)c(O)c(Cl)c1OC` [Compound 16, 1-(3,5-dichloro-2,4-dihydroxy-6-methoxyphenyl)-hexan-1-one], the IC50 in series [1] (Rhinovirus B, H1-HeLa cells, HRV 14, Table 2, Formula V, read-out: IC50) came to 3 µM. In the series with H1-HeLa cells, this molecule showed a TD50 of 40. For the same molecule, the inhibitory constant (Ki) in [2] turned out to be 390 ± 30 µM.

Regarding `COC(CCO)CC(O)C(=O)c1ccccc1` (stereo not drawn) [Compound 107, 2,6-dihydroxy-4-methoxyhexanophenone], the melting point worked out at 121 °C.

As for `CCCCCC(=O)c1c(O)c(Cl)c(OC)c(Cl)c1O` [Compound 15, 1-(3,5-dichloro-2,6-dihydroxy-4-methoxyphenyl)-hexan-1-one], the “inhibition of cleavage activity of elastase” value with elastase is given as “did not inhibit”. The same molecule showed an IC50 in [1] (Rhinovirus B, H1-HeLa) of 7.5 µM. Further, at chymotripsin, the “effect on proteolytic activity of chymotripsin” value was “not to effect”. Besides, the “effect on proteolytic activity of ficin A” value in the series with ficin A is listed as “not to effect”. Also, the “effect on proteolytic activity of cathepsin B” value on cathepsin B is recorded as “not to effect”. Further, in the series on H1-HeLa cells, the TD50 stood at 30. The inhibition constant Ki in series [2] was 460 ± 80 µM; at HRV 3C protease (HRV 3C protease, N-acetylated 10-mer peptide substrate, 35° C.) it was 220 µM. In addition, at papain, the “effect on proteolytic activity of papain” value is recorded as “not to effect”. For the same molecule, the “rate of substrate cleavage” value on HRV 3C protease (in the presence of 270 μM DIF1) is listed as “decreased significantly”.

As for `O=C1C=CC(=O)c2c(O)cccc21` [Compound 3, Juglone, reference compound], in series [2], the Ki turned out to be 630 ± 70 µM.

Turning to `COc1cc(O)cc(O)c1C(C)=O` [Compound 23, 2,4-dihydroxy-6-methoxy acetophenone], the “TD50” value in the series on H1-HeLa cells (Table 1, Formula IV) came to 220 µM.

As to `CCCCCC(=O)c1c(O)c(Cl)c(O)c(Cl)c1O` [Compound 20], the TD50 with H1-HeLa cells came out at 1875. Also, in series [2], the Ki was found to be 460 ± 60 µM.

`O=C(CCc1ccc(O)cc1)c1c(O)cc(O)cc1O` [Formula VIII, Z′=OH, Y′=H, R3=OH, Y=H, phloretin]: the TD50 in the series with H1-HeLa cells is 160.

As to `CC(=O)c1c(O)c(Cl)cc(Cl)c1O` [Compound 109], the IC50 in [1] (H1-HeLa cells, HRV 14, 2 days at 34° C, Table 1, Formula IV, read-out: ICE50) amounted to 1250 µM. Also, in the series on H1-HeLa cells, the “TD50” value was 5000 µM.

For the molecule `COc1cc(O)c(Cl)c(O)c1C(C)=O` [Compound 25], the melting point was in the range of 187.5 to 189 °C. Moreover, in [1] (Rhinovirus B, 48 h, H1-HeLa cells, HRV 14, 2 days at 34° C, Table 1, Formula IV, read-out: ICE50), the IC50 turned out to be 11 µM. The “TD50” value in the series with H1-HeLa cells (human) is 22 µM. Besides, in series [2], the Ki was 3000 ± 1500 µM.

As for `COc1ccc(C(=O)c2ccccc2O)c(O)c1` [Compound 1, Dioxybenzone, reference compound], the Ki in [2] was 4700 ± 900 µM.

Usually melting point stands for the temperature of the solid-liquid transition. In general, Ki refers to the equilibrium dissociation constant of an inhibitor or competing ligand from its target.
